Experimental data taken from patent publication EP4667483A1, “HUMAN TRANSFERRIN RECEPTOR-BINDING PEPTIDE” (JCR Pharmaceuticals Co., Ltd., priority 2023, dated 2024).
Numbered stars: 1 amine (or outer) side, 2 acyl side, 3 side chain; on linkers, the order of the positions; unused ones are H or OH. Bridge positions count the residues as written; N and C are the ends. Square brackets hold non-standard residues; d marks the D form. Side chains are listed from the residue outwards. Peptide text beside a SMILES is read from it. * marks the point of attachment. NH(1-deoxy-D-glucityl) = OC[C@@H](O)[C@@H](O)[C@H](O)[C@@H](O)CN*; Trp(1-CH2COOH) = N[C@@H](Cc1cn(CC(=O)O)c2ccccc12)C(=O)O; CH2CON(CH2CH2)2NCH2COOH = O=C(O)CN1CCN(C(=O)C*)CC1; Nle(6-morpholino) = N[C@@H](CCCCN1CCOCC1)C(=O)O; Phe(3-COOH) = N[C@@H](Cc1cccc(C(=O)O)c1)C(=O)O; Trp(7-aza) = N[C@@H](Cc1c[nH]c2ncccc12)C(=O)O; NH(CH2CH2O)8Me = COCCOCCOCCOCCOCCOCCOCCOCCN*; NMePhe(3-Cl) = CN[C@@H](Cc1cccc(Cl)c1)C(=O)O; Piperazinyl(4-CH2COOH) = O=C(O)CN1CCN(*)CC1; 3Pal(6-NH2) = Nc1ccc(C[C@H](N)C(=O)O)cn1; NMeY = CN[C@@H](Cc1ccc(O)cc1)C(=O)O; 4Pal = N[C@@H](Cc1ccncc1)C(=O)O; PEG4 = NCCOCCOCCOCCOCCC(=O)O; CO = O=C([*:1])[*:2]

Columns and labels:
[1] = molecular target: T1, human transferrin receptor (hTfR) (Homo sapiens, UniProt P02786); experiment: SPR measurement under pH 7.4 conditions (Biacore T200, CM3 chip, hTfR captured by His Tag antibody); assay type: binding; conditions: pH 7.4, single-cycle kinetics; read-out: hTfR SPR pH7.4 KD
T1 sequence (P02786 whole entry): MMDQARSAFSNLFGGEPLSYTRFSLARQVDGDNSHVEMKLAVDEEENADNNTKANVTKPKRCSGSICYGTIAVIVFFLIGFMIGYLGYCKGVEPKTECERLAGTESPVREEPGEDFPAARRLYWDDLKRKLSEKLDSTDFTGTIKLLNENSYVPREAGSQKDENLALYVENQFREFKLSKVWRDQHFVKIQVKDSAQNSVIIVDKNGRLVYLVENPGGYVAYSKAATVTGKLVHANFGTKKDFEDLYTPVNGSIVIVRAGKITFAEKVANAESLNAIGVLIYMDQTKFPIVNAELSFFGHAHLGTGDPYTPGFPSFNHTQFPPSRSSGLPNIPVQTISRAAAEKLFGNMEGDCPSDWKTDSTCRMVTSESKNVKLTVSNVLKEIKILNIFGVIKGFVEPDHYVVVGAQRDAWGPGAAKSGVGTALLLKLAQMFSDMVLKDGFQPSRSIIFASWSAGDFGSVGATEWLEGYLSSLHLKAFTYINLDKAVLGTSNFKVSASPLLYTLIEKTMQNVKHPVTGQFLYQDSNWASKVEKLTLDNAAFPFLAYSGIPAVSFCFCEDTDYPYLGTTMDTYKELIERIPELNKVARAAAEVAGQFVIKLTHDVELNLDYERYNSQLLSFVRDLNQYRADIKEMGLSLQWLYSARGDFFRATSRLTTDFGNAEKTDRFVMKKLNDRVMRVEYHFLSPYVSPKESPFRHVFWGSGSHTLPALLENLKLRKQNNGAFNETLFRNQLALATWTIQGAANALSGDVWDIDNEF

[2] = molecular target: T1, human transferrin receptor (hTfR); experiment: SPR measurement under pH 6.0 conditions (Biacore T200, NTA chip, immobilized hTfR); assay type: binding; conditions: pH 6.0, single-cycle kinetics; read-out: hTfR SPR pH6.0 KD

Row | SMILES | Kd [1] | Kd [2]
1 | CC[C@H](C)[C@@H]1NC(=O)[C@H](Cc2ccc(OCC(=O)N3CCN(CC(=O)O)CC3)cc2)NC(=O)[C@H](Cc2ccc(O)cc2)NC(=O)[C@H](CC(N)=O)NC(=O)[C@H](Cc2c[nH]c3ncccc23)NC(=O)[C@H](C(C)C)NC(=O)[C@H](Cc2cccc(Cl)c2)N(C)C(=O)[C@H](C(C)C)NC(=O)[C@H](C)NC(=O)CSC[C@@H](C(=O)NCCOCCOCCOCCOCCC(N)=O)NC(=O)[C@H](Cc2ccc(O)cc2)N(C)C(=O)[C@H](Cc2ccncc2)NC(=O)[C@H](CCCCN2CCOCC2)NC(=O)[C@H](CCCCNC(=O)N2CCN(CC(=O)O)CC2)NC(=O)[C@H]([C@@H](C)CC)NC1=O [compound 19] ({CH2CO}-AV[NMePhe(3-Cl)]V[Trp(7-aza)]NYY(CH2CON(CH2CH2)2NCH2COOH)IIK([CO-Piperazinyl(4-CH2COOH)])[Nle(6-morpholino)][4Pal][NMeY]C[PEG4]-NH2; thioether N-15) | 4.82 nM | 7.92 nM
2 | CC[C@H](C)[C@@H]1NC(=O)[C@H](Cc2ccc(OC)cc2)NC(=O)[C@H](Cc2ccc(N)nc2)NC(=O)[C@H](CC(N)=O)NC(=O)[C@H](Cc2c[nH]c3ncccc23)NC(=O)[C@H](C(C)C)NC(=O)[C@H](Cc2cccc(Cl)c2)N(C)C(=O)[C@H](C(C)C)NC(=O)[C@H](C)NC(=O)CSC[C@@H](C(=O)NCCOCCOCCOCCOCCC(N)=O)NC(=O)[C@H](Cc2ccc(O)cc2)N(C)C(=O)[C@H](Cc2ccncc2)NC(=O)[C@H](CCCCN2CCOCC2)NC(=O)[C@H](CCC(=O)NC[C@H](O)[C@@H](O)[C@H](O)[C@H](O)CO)NC(=O)[C@H]([C@@H](C)CC)NC1=O [compound 20] ({CH2CO}-AV[NMePhe(3-Cl)]V[Trp(7-aza)]N[3Pal(6-NH2)]Y(Me)IIE(NH(1-deoxy-D-glucityl))[Nle(6-morpholino)][4Pal][NMeY]C[PEG4]-NH2; thioether N-15) | 4.08 nM | 41.3 nM
3 | CC[C@H](C)[C@@H]1NC(=O)[C@H](Cc2ccc(OCC(=O)N3CCN(CC(=O)O)CC3)cc2)NC(=O)[C@H](Cc2ccc(O)cc2)NC(=O)[C@H](CC(N)=O)NC(=O)[C@H](Cc2c[nH]c3ncccc23)NC(=O)[C@H](C(C)C)NC(=O)[C@H](Cc2cccc(Cl)c2)N(C)C(=O)[C@H](C(C)C)NC(=O)[C@H](C)NC(=O)CSC[C@@H](C(=O)NCCOCCOCCOCCOCCC(N)=O)NC(=O)[C@H](Cc2ccc(O)cc2)N(C)C(=O)[C@H](Cc2cccc(C(=O)O)c2)NC(=O)[C@H](CCCCN2CCOCC2)NC(=O)[C@H](CCC(=O)NCCOCCOCCOCCOCCOCCOCCOCCOC)NC(=O)[C@H]([C@@H](C)CC)NC1=O [compound 21] ({CH2CO}-AV[NMePhe(3-Cl)]V[Trp(7-aza)]NYY(CH2CON(CH2CH2)2NCH2COOH)IIE(NH(CH2CH2O)8Me)[Nle(6-morpholino)][Phe(3-COOH)][NMeY]C[PEG4]-NH2; thioether N-15) | 5.37 nM | 101 nM
4 | CC[C@H](C)[C@@H]1NC(=O)[C@H](Cc2ccc(OCC(=O)N3CCN(CC(=O)O)CC3)cc2)NC(=O)[C@H](Cc2ccc(O)cc2)NC(=O)[C@H](CC(N)=O)NC(=O)[C@H](Cc2cn(CC(=O)O)c3ccccc23)NC(=O)[C@H](C(C)C)NC(=O)[C@H](Cc2cccc(Cl)c2)N(C)C(=O)[C@H](C(C)C)NC(=O)[C@H](C)NC(=O)CSC[C@@H](C(=O)NCCOCCOCCOCCOCCC(N)=O)NC(=O)[C@H](Cc2ccc(O)cc2)N(C)C(=O)[C@H](Cc2ccncc2)NC(=O)[C@H](CCCCN2CCOCC2)NC(=O)[C@H](CCC(=O)NCCOCCOCCOCCOCCOCCOCCOCCOC)NC(=O)[C@H]([C@@H](C)CC)NC1=O [compound 22] | 4.11 nM | 205 nM
5 | CC[C@H](C)[C@@H]1NC(=O)[C@H](Cc2ccc(OCC(=O)N3CCN(CC(=O)O)CC3)cc2)NC(=O)[C@H](Cc2ccc(O)cc2)NC(=O)[C@H](CC(N)=O)NC(=O)[C@H](Cc2c[nH]c3ncccc23)NC(=O)[C@H](C(C)C)NC(=O)[C@H](Cc2cccc(Cl)c2)N(C)C(=O)[C@H](C(C)C)NC(=O)[C@H](C)NC(=O)CSC[C@@H](C(=O)NCCOCCOCCOCCOCCC(N)=O)NC(=O)[C@H](Cc2ccc(O)cc2)N(C)C(=O)[C@H](Cc2ccncc2)NC(=O)[C@H](CCCCN2CCOCC2)NC(=O)[C@H](CCC(N)=O)NC(=O)[C@H]([C@@H](C)CC)NC1=O [compound 23] | 3.45 nM | 33.4 nM
6 | CC[C@H](C)[C@@H]1NC(=O)[C@H](Cc2ccc(OCC(=O)N3CCN(CC(=O)O)CC3)cc2)NC(=O)[C@H](Cc2ccc(O)cc2)NC(=O)[C@H](CC(N)=O)NC(=O)[C@H](Cc2c[nH]c3ncccc23)NC(=O)[C@H](C(C)C)NC(=O)[C@H](Cc2cccc(Cl)c2)N(C)C(=O)[C@H](C(C)C)NC(=O)[C@H](C)NC(=O)CSC[C@@H](C(=O)NCCOCCOCCOCCOCCC(N)=O)NC(=O)[C@H](Cc2ccc(O)cc2)N(C)C(=O)[C@H](Cc2cccc(C(=O)O)c2)NC(=O)[C@H](CCCCN2CCOCC2)NC(=O)[C@H](CCC(N)=O)NC(=O)[C@H]([C@@H](C)CC)NC1=O [compound 24] ({CH2CO}-AV[NMePhe(3-Cl)]V[Trp(7-aza)]NYY(CH2CON(CH2CH2)2NCH2COOH)IIQ[Nle(6-morpholino)][Phe(3-COOH)][NMeY]C[PEG4]-NH2; thioether N-15) | 2.01 nM | 26.7 nM
7 | CC[C@H](C)[C@@H]1NC(=O)[C@H](Cc2ccc(OCC(=O)N3CCN(CC(=O)O)CC3)cc2)NC(=O)[C@H](Cc2ccc(O)cc2)NC(=O)[C@H](CC(N)=O)NC(=O)[C@H](Cc2cn(CC(=O)O)c3ccccc23)NC(=O)[C@H](C(C)C)NC(=O)[C@H](Cc2cccc(Cl)c2)N(C)C(=O)[C@H](C(C)C)NC(=O)[C@H](C)NC(=O)CSC[C@@H](C(=O)NCCOCCOCCOCCOCCC(N)=O)NC(=O)[C@H](Cc2ccc(O)cc2)N(C)C(=O)[C@H](Cc2ccncc2)NC(=O)[C@H](CCCCN2CCOCC2)NC(=O)[C@H](CCC(N)=O)NC(=O)[C@H]([C@@H](C)CC)NC1=O [compound 25] | 3.35 nM | 57.9 nM
8 | CC[C@H](C)[C@@H]1NC(=O)[C@H](Cc2ccc(OCC(=O)NC[C@H](O)[C@@H](O)[C@H](O)[C@H](O)CO)cc2)NC(=O)[C@H](Cc2ccc(O)cc2)NC(=O)[C@H](CC(N)=O)NC(=O)[C@H](Cc2c[nH]c3ncccc23)NC(=O)[C@H](C(C)C)NC(=O)[C@H](Cc2cccc(Cl)c2)N(C)C(=O)[C@H](C(C)C)NC(=O)[C@H](C)NC(=O)CSC[C@@H](C(=O)NCCOCCOCCOCCOCCC(N)=O)NC(=O)[C@H](Cc2ccc(O)cc2)N(C)C(=O)[C@H](Cc2ccncc2)NC(=O)[C@H](CCCNC(=N)N)NC(=O)[C@H](CCC(=O)NC[C@H](O)[C@@H](O)[C@H](O)[C@H](O)CO)NC(=O)[C@H]([C@@H](C)CC)NC1=O [compound 26] | 1.73 nM | 13.4 nM
9 | CC[C@H](C)[C@@H]1NC(=O)[C@H](Cc2ccc(OCC(=O)NC[C@H](O)[C@@H](O)[C@H](O)[C@H](O)CO)cc2)NC(=O)[C@H](Cc2ccc(O)cc2)NC(=O)[C@H](CC(N)=O)NC(=O)[C@H](Cc2c[nH]c3ncccc23)NC(=O)[C@H](C(C)C)NC(=O)[C@H](Cc2cccc(Cl)c2)N(C)C(=O)[C@H](C(C)C)NC(=O)[C@H](C)NC(=O)CSC[C@@H](C(=O)NCCOCCOCCOCCOCCC(N)=O)NC(=O)[C@H](Cc2ccc(O)cc2)N(C)C(=O)[C@H](Cc2ccncc2)NC(=O)[C@H](CCCCN2CCOCC2)NC(=O)[C@H](CCC(=O)NC[C@H](O)[C@@H](O)[C@H](O)[C@H](O)CO)NC(=O)[C@H]([C@@H](C)CC)NC1=O [compound 27] | 3.03 nM | 15.4 nM
10 | CC[C@H](C)[C@@H]1NC(=O)[C@H](Cc2ccc(OCC(=O)NC[C@H](O)[C@@H](O)[C@H](O)[C@H](O)CO)cc2)NC(=O)[C@H](Cc2ccc(O)cc2)NC(=O)[C@H](CC(N)=O)NC(=O)[C@H](Cc2c[nH]c3ncccc23)NC(=O)[C@H](C(C)C)NC(=O)[C@H](Cc2cccc(Cl)c2)N(C)C(=O)[C@H](C(C)C)NC(=O)[C@H](C)NC(=O)CSC[C@@H](C(=O)NCCOCCOCCOCCOCCC(N)=O)NC(=O)[C@H](Cc2ccc(O)cc2)N(C)C(=O)[C@H](Cc2ccncc2)NC(=O)[C@H](CCCCN2CCOCC2)NC(=O)[C@H](CCC(N)=O)NC(=O)[C@H]([C@@H](C)CC)NC1=O [compound 29] | 2.17 nM | 11.1 nM
11 | CC[C@H](C)[C@@H]1NC(=O)[C@H](Cc2ccc(OCC(=O)N3CCN(CC(=O)O)CC3)cc2)NC(=O)[C@H](Cc2ccc(O)cc2)NC(=O)[C@H](CC(N)=O)NC(=O)[C@H](Cc2cn(CC(=O)O)c3ccccc23)NC(=O)[C@H](C(C)C)NC(=O)[C@H](Cc2cccc(Cl)c2)N(C)C(=O)[C@H](C(C)C)NC(=O)[C@H](C)NC(=O)CSC[C@@H](C(=O)NCCOCCOCCOCCOCCC(N)=O)NC(=O)[C@H](Cc2ccc(O)cc2)N(C)C(=O)[C@H](Cc2ccccc2)NC(=O)[C@H](CCCCN2CCOCC2)NC(=O)[C@H](CCC(=O)NCCOCCOCCOCCOCCOCCOCCOCCOC)NC(=O)[C@H]([C@@H](C)CC)NC1=O [compound 30] ({CH2CO}-AV[NMePhe(3-Cl)]V[Trp(1-CH2COOH)]NYY(CH2CON(CH2CH2)2NCH2COOH)IIE(NH(CH2CH2O)8Me)[Nle(6-morpholino)]F[NMeY]C[PEG4]-NH2; thioether N-15) | 10.2 nM | 95.6 nM
12 | CC[C@H](C)[C@@H]1NC(=O)[C@H](Cc2ccc(OCC(=O)N3CCN(CC(=O)O)CC3)cc2)NC(=O)[C@H](Cc2ccc(O)cc2)NC(=O)[C@H](CC(N)=O)NC(=O)[C@H](Cc2c[nH]c3ccccc23)NC(=O)[C@H](C(C)C)NC(=O)[C@H](Cc2cccc(Cl)c2)N(C)C(=O)[C@H](C(C)C)NC(=O)[C@H](C)NC(=O)CSC[C@@H](C(=O)NCCOCCOCCOCCOCCC(N)=O)NC(=O)[C@H](Cc2ccc(O)cc2)N(C)C(=O)[C@H](Cc2cccc(C(=O)O)c2)NC(=O)[C@H](CCCCN2CCOCC2)NC(=O)[C@H](CCC(=O)NCCOCCOCCOCCOCCOCCOCCOCCOC)NC(=O)[C@H]([C@@H](C)CC)NC1=O [compound 31] ({CH2CO}-AV[NMePhe(3-Cl)]VWNYY(CH2CON(CH2CH2)2NCH2COOH)IIE(NH(CH2CH2O)8Me)[Nle(6-morpholino)][Phe(3-COOH)][NMeY]C[PEG4]-NH2; thioether N-15) | 2.43 nM | 17.1 nM
